Experimental data: US8455475B2 (Gruenenthal GmbH, priority 2009, dated 2013)

Biological target: T1, rat B1R (bradykinin receptor 1) (Rattus norvegicus, UniProt P97583)
T1 construct: expressed in transfected cells; host or cells: CHO K1 cells
T1 sequence (P97583 1-337): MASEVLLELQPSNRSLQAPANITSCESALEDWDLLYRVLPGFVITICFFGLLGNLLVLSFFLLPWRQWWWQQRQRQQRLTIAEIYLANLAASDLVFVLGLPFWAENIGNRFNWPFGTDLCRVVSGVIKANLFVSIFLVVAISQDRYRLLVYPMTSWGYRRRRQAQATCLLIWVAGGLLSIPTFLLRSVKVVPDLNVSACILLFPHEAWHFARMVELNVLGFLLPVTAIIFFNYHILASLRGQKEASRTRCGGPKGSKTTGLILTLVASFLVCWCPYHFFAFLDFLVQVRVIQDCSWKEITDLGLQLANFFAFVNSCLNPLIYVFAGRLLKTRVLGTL
Experiment: FLIPR Ca2+ assay (Fluo-4) on CHO K1 cells stably transfected with the B1R gene of the rat (rB1R cells): % inhibition at 10 μM / IC50, agonist Des-Arg9-bradykinin
Assay type: cell-based
Conditions: CHO-K1, rat B1R
Outline: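 Peak fluorescence counts read on FLIPR (λex 488, λem 540 nm) after two additions: compound first, then agonist at EC80 after 10–20 min. Human line challenged with Lys-Des-Arg9-bradykinin, rat line with Des-Arg9-bradykinin. Suppression of Ca2+ inflow expressed as % of maximum inhibition.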

Compound	inhibition at 10 µM
O=C(c1ccc2c(c1)C(N(C(=O)c1ccccc1Cl)C1CC1)CC2)N1CCC2(CCN(Cc3cc(F)ccc3F)CC2)C1 (stereo not drawn) [IND_CC-522, 2-Chloro-N-cyclopropyl-N-[6-[8-[(2,5-difluoro-phenyl)-methyl]-2,8-diazaspiro[4.5]decane-2-carbonyl]-2,3-dihydro-1H-inden-1-yl]-benzamide]	55%
Cc1c(CN2CCC3(CC2)CCN(C(=O)c2ccc4c(c2)C(NC(=O)c2ccccc2Cl)CC4)C3)cnn1C (stereo not drawn) [IND_CC-559, 2-Chloro-N-[6-[8-[(1,5-dimethyl-1H-pyrazol-4-yl)-methyl]-2,8-diazaspiro[4.5]decane-2-carbonyl]-2,3-dihydro-1H-inden-1-yl]-benzamide]	56%
O=C(NC1CCc2ccc(C(=O)N3CCC4(CCN(Cc5ccncc5)CC4)CC3)cc21)c1cc(Cl)ccc1F (stereo not drawn) [IND_CC-627, 5-Chloro-2-fluoro-N-[6-[9-(pyridin-4-yl-methyl)-3,9-diazaspiro[5.5]undecane-3-carbonyl]-2,3-dihydro-1H-inden-1-yl]-benzamide]	54%
O=C(c1ccc2c(c1)C(NS(=O)(=O)c1cccc(C(F)(F)F)c1)CC2)N1CCC2(CC1)CCN(c1ccncc1)CC2 (stereo not drawn) [IND_CC-328, N-[6-(9-Pyridin-4-yl-3,9-diazaspiro[5.5]undecane-3-carbonyl)-2,3-dihydro-1H-inden-1-yl]-3-(trifluoromethyl)-benzenesulfonic acid amide]	98%
COc1cccc(F)c1CN1CCC2(CC1)CCN(C(=O)c1ccc3c(c1)C(NC(=O)c1cc(C(F)(F)F)ccc1Cl)CC3)CC2 (stereo not drawn) [IND_CC-649, 2-Chloro-N-[6-[9-[(2-fluoro-6-methoxy-phenyl)-methyl]-3,9-diazaspiro[5.5]-undecane-3-carbonyl]-2,3-dihydro-1H-inden-1-yl]-5-(trifluoromethyl)benzamide]	76%
CCC(C)C(=O)NC1CCc2ccc(C(=O)N3CCC4(CCN(c5ccncc5)CC4)C3)cc21 (stereo not drawn) [IND_CC-417, 2-Methyl-N-[6-(8-pyridin-4-yl-2,8-diazaspiro[4.5]decane-2-carbonyl)-2,3-dihydro-1H-inden-1-yl]-butyramide]	102%
Cc1noc(C)c1CN1CCC2(CC1)CCN(C(=O)c1ccc3c(c1)C(NC(=O)c1c(F)cccc1Cl)CC3)C2 (stereo not drawn) [IND_CC-738, 2-Chloro-N-[6-[8-[(3,5-dimethyl-isoxazol-4-yl)-methyl]-2,8-diazaspiro-[4.5]decane-2-carbonyl]-2,3-dihydro-1H-inden-1-yl]-6-fluoro-benzamide]	89%
O=C(NC1CCc2ccc(C(=O)N3CCC4(CCN(Cc5ccc(F)cc5F)CC4)C3)cc21)c1ccccc1Cl (stereo not drawn) [IND_CC-544, 2-Chloro-N-[6-[8-[(2,4-difluoro-phenyl)-methyl]-2,8-diazaspiro[4.5]decane-2-carbonyl]-2,3-dihydro-1H-inden-1-yl]-benzamide]	99%
O=C(NC1CCc2ccc(C(=O)N3CCC4(CCN(Cc5c(F)cccc5F)CC4)CC3)cc21)c1c(F)cccc1Cl (stereo not drawn) [IND_CC-788, 2-Chloro-N-[6-[9-[(2,6-difluoro-phenyl)-methyl]-3,9-diazaspiro[5.5]undecane-3-carbonyl]-2,3-dihydro-1H-inden-1-yl]-6-fluoro-benzamide]	71%
O=C(NC1CCc2ccc(C(=O)N3CCC4(CC3)CCN(c3ccncc3)CC4)cc21)c1c(F)cccc1C(F)(F)F (stereo not drawn) [IND_CC-376, 2-Fluoro-N-[6-(9-pyridin-4-yl-3,9-diazaspiro[5.5]undecane-3-carbonyl)-2,3-dihydro-1H-inden-1-yl]-6-(trifluoromethyl)-benzamide]	102%
O=C(NC1CCc2ccc(C(=O)N3CCC4(CCN(Cc5ccc6ncccc6c5)CC4)CC3)cc21)c1cc(C(F)(F)F)ccc1Cl (stereo not drawn) [IND_CC-695, 2-Chloro-N-[6-[9-(quinolin-6-yl-methyl)-3,9-diazaspiro[5.5]undecane-3-carbonyl]-2,3-dihydro-1H-inden-1-yl]-5-(trifluoromethyl)-benzamide]	100%
CN(C(=O)c1ccccc1Cl)C1CCc2ccc(C(=O)N3CCC4(CCN(Cc5ccccc5C#N)CC4)C3)cc21 (stereo not drawn) [IND_CC-505, 2-Chloro-N-[6-[8-[(2-cyano-phenyl)-methyl]-2,8-diazaspiro[4.5]decane-2-carbonyl]-2,3-dihydro-1H-inden-1-yl]-N-methyl-benzamide]	67%
O=C(NC1CCc2ccc(C(=O)N3CCC4(CCN(Cc5cccnc5)CC4)CC3)cc21)c1cc(C(F)(F)F)ccc1Cl (stereo not drawn) [IND_CC-642, 2-Chloro-N-[6-[9-(pyridin-3-yl-methyl)-3,9-diazaspiro[5.5]undecane-3-carbonyl]-2,3-dihydro-1H-inden-1-yl]-5-(trifluoromethyl)-benzamide]	77%
CCC(CC)CN1CCC2(CC1)CCN(C(=O)c1ccc3c(c1)C(NC(=O)c1cc(C(F)(F)F)ccc1Cl)CC3)C2 (stereo not drawn) [IND_CC-688, 2-Chloro-N-[6-[8-(2-ethyl-butyl)-2,8-diazaspiro[4.5]decane-2-carbonyl]-2,3-dihydro-1H-inden-1-yl]-5-(trifluoromethyl)-benzamide]	88%
O=C(NC1CCc2ccc(C(=O)N3CCC4(CCN(Cc5ccc[nH]5)CC4)CC3)cc21)c1cc(C(F)(F)F)ccc1Cl (stereo not drawn) [IND_CC-638, 2-Chloro-N-[6-[9-(1H-pyrrol-2-yl-methyl)-3,9-diazaspiro[5.5]undecane-3-carbonyl]-2,3-dihydro-1H-inden-1-yl]-5-(trifluoromethyl)-benzamide]	80%

Other lines, results leading:

inhibition at 10 µM	Compound
104%	O=C(NC1CCc2ccc(C(=O)N3CCC4(CCN(c5ccncc5)CC4)C3)cc21)c1c(F)cccc1C(F)(F)F (stereo not drawn) [IND_CC-378, 2-Fluoro-N-[6-(8-pyridin-4-yl-2,8-diazaspiro[4.5]decane-2-carbonyl)-2,3-dihydro-1H-inden-1-yl]-6-(trifluoromethyl)-benzamide]
102%	N#Cc1cccc(CN2CCC3(CC2)CCN(C(=O)c2ccc4c(c2)C(NC(=O)c2ccccc2Cl)CC4)CC3)c1 (stereo not drawn) [IND_CC-534, 2-Chloro-N-[6-[9-[(3-cyano-phenyl)-methyl]-3,9-diazaspiro[5.5]undecane-3-carbonyl]-2,3-dihydro-1H-inden-1-yl]-benzamide]
83%	COc1ccc(C(=O)NC2c3cc(C(=O)N4CCC5(CC4)CCN(c4ccncc4)CC5)ccc3CC2(C)C)c(F)c1 (stereo not drawn) [IND_CC-311, N-[2,2-Dimethyl-6-(9-pyridin-4-yl-3,9-diazaspiro[5.5]undecane-3-carbonyl)-1,3-dihydro-inden-1-yl]-2-fluoro-4-methoxy-benzamide]
51%	Cc1nn(C)c(C)c1CN1CCC2(CC1)CCN(C(=O)c1ccc3c(c1)C(NC(=O)c1cc(C(F)(F)F)ccc1Cl)CC3)C2 (stereo not drawn) [IND_CC-682, 2-Chloro-5-(trifluoromethyl)-N-[6-[8-[(1,3,5-trimethyl-1H-pyrazol-4-yl)-methyl]-2,8-diazaspiro[4.5]decane-2-carbonyl]-2,3-dihydro-1H-inden-1-yl]-benzamide]
65%	Cc1cc(F)cc(C)c1S(=O)(=O)NC1CCc2ccc(C(=O)N3CCC4(CC3)CCN(c3ccncc3)CC4)cc21 (stereo not drawn) [IND_CC-355, 4-Fluoro-2,6-dimethyl-N-[6-(9-pyridin-4-yl-3,9-diazaspiro[5.5]undecane-3-carbonyl)-2,3-dihydro-1H-inden-1-yl]-benzenesulfonic acid amide]
101%	O=C(NC1CCc2ccc(C(=O)N3CCC4(CC3)CCN(S(=O)(=O)c3ccc(F)cc3F)CC4)cc21)c1ccccc1Cl (stereo not drawn) [IND_CC-609, 2-Chloro-N-[6-[9-[(2,4-difluoro-phenyl)sulfonyl]-3,9-diazaspiro[5.5]undecane-3-carbonyl]-2,3-dihydro-1H-inden-1-yl]-benzamide]
89%	COc1ccc(CN2CCC3(CC2)CCN(C(=O)c2ccc4c(c2)C(NC(=O)c2c(F)cccc2Cl)CC4)CC3)cc1F (stereo not drawn) [IND_CC-792, 2-Chloro-6-fluoro-N-[6-[9-[(3-fluoro-4-methoxy-phenyl)-methyl]-3,9-diazaspiro[5.5]undecane-3-carbonyl]-2,3-dihydro-1H-inden-1-yl]-benzamide]
91%	Cc1cccc(Cl)c1C(=O)NC1CCc2ccc(C(=O)N3CCC4(CCN(CCc5ccccc5)CC4)C3)cc21 (stereo not drawn) [IND_CC-769, 2-Chloro-6-methyl-N-[6-(8-phenethyl-2,8-diazaspiro[4.5]decane-2-carbonyl)-2,3-dihydro-1H-inden-1-yl]-benzamide]
106%	O=C(NC1CCc2ccc(C(=O)N3CCC4(CCN(CCCc5cccc(F)c5)CC4)C3)cc21)c1c(F)cccc1Cl (stereo not drawn) [IND_CC-781, 2-Chloro-6-fluoro-N-[6-[8-[3-(3-fluorophenyl)-propyl]-2,8-diazaspiro[4.5]decane-2-carbonyl]-2,3-dihydro-1H-inden-1-yl]-benzamide]
98%	O=C(NC1CCc2ccc(C(=O)N3CCC4(CCN(Cc5ccc6nccnc6c5)CC4)C3)cc21)c1c(F)cccc1Cl (stereo not drawn) [IND_CC-775, 2-Chloro-6-fluoro-N-[6-[8-(quinoxalin-6-yl-methyl)-2,8-diazaspiro[4.5]decane-2-carbonyl]-2,3-dihydro-1H-inden-1-yl]-benzamide]
55%	Cc1c(CN2CCC3(CC2)CCN(C(=O)c2ccc4c(c2)C(NC(=O)c2c(F)cccc2Cl)CC4)C3)cnn1C (stereo not drawn) [IND_CC-737, 2-Chloro-N-[6-[8-[(1,5-dimethyl-1H-pyrazol-4-yl)-methyl]-2,8-diazaspiro-[4.5]decane-2-carbonyl]-2,3-dihydro-1H-inden-1-yl]-6-fluoro-benzamide]

Same assay, conditions: rat B1R

% Inhibition (rat B1R) at 10 μM	Compound
104%	2-Methyl-N-[6-(8-pyridin-4-yl-2,8-diazaspiro[4.5]decane-2-carbonyl)-2,3-dihydro-1H-inden-1-yl]-benzamide [IND_CC-358]
